# Where two headings read alike, the source gives them in different places.
# Test system: Phytophthora infestans
# Assay type: in vivo
# Details: for E, Expected % disease control / O, Observed % disease control / O-E: A76 potato; for performance in combination with A76 (indicative of synergy): in combination with A76 potato, observed vs expected disease control
# [1] = 3 ppm, Jan. 25, 2001, FB 2001/3001
# [2] = 3 ppm, Jan. 26, 2001, FB 2001/3001
# [3] = 3 ppm, Jan. 27, 2001, FB 2001/3001
# [4] = 3 ppm, Jan. 28, 2001, FB 2001/3001
# [5] = 3 ppm, Jan. 29, 2001, FB 2001/3001
# [6] = 3 ppm, Oct. 13, 2000, FB 2000/3024
# [7] = 3 ppm, Oct. 16, 2000, FB 2000/3024
# [8] = 3 ppm, Oct. 18, 2000, FB 2000/3024
# [9] = 3 ppm, Oct. 20, 2000, FB 2000/3024
# [10] = 10 ppm, Jan. 25, 2001, FB 2001/3001
# [11] = 10 ppm, Jan. 26, 2001, FB 2001/3001
# [12] = 10 ppm, Jan. 27, 2001, FB 2001/3001
# [13] = 10 ppm, Jan. 28, 2001, FB 2001/3001
# [14] = 10 ppm, Jan. 29, 2001, FB 2001/3001
# [15] = 10 ppm, Oct. 13, 2000, FB 2000/3024
# [16] = 10 ppm, Oct. 16, 2000, FB 2000/3024
# [17] = 10 ppm, Oct. 18, 2000, FB 2000/3024
# [18] = 10 ppm, Oct. 20, 2000, FB 2000/3024
# [19] = 30 ppm, Oct. 13, 2000, FB 2000/3024
# [20] = 30 ppm, Oct. 16, 2000, FB 2000/3024
# [21] = 30 ppm, Oct. 18, 2000, FB 2000/3024
# [22] = 30 ppm, Oct. 20, 2000, FB 2000/3024
smiles,measurement,setting,value
"N#Cc1c(Cl)c(Cl)c(Cl)c(C#N)c1Cl [Chlorothalonil, chlorothalonil]","E, Expected % disease control",[1],98.3%
same,"O, Observed % disease control",[1],91.7%
same,O-E,[1],−1.6
same,"E, Expected % disease control",[2],96.2%
same,"O, Observed % disease control",[2],94.9%
same,O-E,[2],−1.3
same,"E, Expected % disease control",[3],94.5%
same,"O, Observed % disease control",[3],92.7%
same,O-E,[3],−1.7
same,"E, Expected % disease control",[4],83.2%
same,"O, Observed % disease control",[4],86.9%
same,O-E,[4],3.6
same,"E, Expected % disease control",[5],67.2%
same,"O, Observed % disease control",[5],77.9%
same,O-E,[5],10.7
same,"E, Expected % disease control",[6],73.73%
same,"O, Observed % disease control",[6],83.1%
same,O-E,[6],9.37
same,"E, Expected % disease control",[7],78.12%
same,"O, Observed % disease control",[7],86.09%
same,O-E,[7],7.97
same,"E, Expected % disease control",[8],56.09%
same,"O, Observed % disease control",[8],76.41%
same,O-E,[8],20.32
same,"E, Expected % disease control",[9],39.95%
same,"O, Observed % disease control",[9],75.7%
same,O-E,[9],35.75
same,"E, Expected % disease control",[10],97.0%
same,"O, Observed % disease control",[10],97.2%
same,O-E,[10],0.2
same,"E, Expected % disease control",[11],98.2%
same,"O, Observed % disease control",[11],97.4%
same,O-E,[11],−0.8
same,"E, Expected % disease control",[12],97.8%
same,"O, Observed % disease control",[12],97.9%
same,O-E,[12],0.1
same,"E, Expected % disease control",[13],93.8%
same,"O, Observed % disease control",[13],99.0%
same,O-E,[13],5.2
same,"E, Expected % disease control",[14],90.1%
same,"O, Observed % disease control",[14],97.0%
same,O-E,[14],6.9
same,"E, Expected % disease control",[15],92.49%
same,"O, Observed % disease control",[15],88.73%
same,O-E,[15],−3.76
same,"E, Expected % disease control",[16],94.65%
same,"O, Observed % disease control",[16],95.36%
same,O-E,[16],0.71
same,"E, Expected % disease control",[17],91.33%
same,"O, Observed % disease control",[17],87.77%
same,O-E,[17],−3.56
same,"E, Expected % disease control",[18],84.98%
same,"O, Observed % disease control",[18],79.74%
same,O-E,[18],−5.24
same,performance in combination with A76 (indicative of synergy),,better than expected
"COCC(=O)N(c1c(C)cccc1C)C(C)C(=O)OC (centres unmarked) [Metalaxyl, metalaxyl]","E, Expected % disease control",[1],88.8%
same,"O, Observed % disease control",[1],91.7%
same,O-E,[1],2.8
same,"E, Expected % disease control",[2],92.6%
same,"O, Observed % disease control",[2],94.9%
same,O-E,[2],2.3
same,"E, Expected % disease control",[3],87.2%
same,"O, Observed % disease control",[3],93.8%
same,O-E,[3],6.5
same,"E, Expected % disease control",[4],57.9%
same,"O, Observed % disease control",[4],91.9%
same,O-E,[4],34.1
same,"E, Expected % disease control",[5],38.1%
same,"O, Observed % disease control",[5],89.9%
same,O-E,[5],51.8
same,"E, Expected % disease control",[6],79.35%
same,"O, Observed % disease control",[6],94.37%
same,O-E,[6],15.02
same,"E, Expected % disease control",[7],71.31%
same,"O, Observed % disease control",[7],97.68%
same,O-E,[7],26.37
same,"E, Expected % disease control",[8],58.26%
same,"O, Observed % disease control",[8],97.95%
same,O-E,[8],39.69
same,"E, Expected % disease control",[9],42.01%
same,"O, Observed % disease control",[9],95.95%
same,O-E,[9],53.94
same,"E, Expected % disease control",[10],98.3%
same,"O, Observed % disease control",[10],97.2%
same,O-E,[10],3.9
same,"E, Expected % disease control",[11],96.2%
same,"O, Observed % disease control",[11],98.7%
same,O-E,[11],2.5
same,"E, Expected % disease control",[12],94.2%
same,"O, Observed % disease control",[12],99.0%
same,O-E,[12],4.8
same,"E, Expected % disease control",[13],80.4%
same,"O, Observed % disease control",[13],98.0%
same,O-E,[13],17.6
same,"E, Expected % disease control",[14],55.4%
same,"O, Observed % disease control",[14],97.0%
same,O-E,[14],41.6
same,"E, Expected % disease control",[15],88.74%
same,"O, Observed % disease control",[15],94.37%
same,O-E,[15],5.63
same,"E, Expected % disease control",[16],87.84%
same,"O, Observed % disease control",[16],96.6%
same,O-E,[16],8.76
same,"E, Expected % disease control",[17],75.07%
same,"O, Observed % disease control",[17],97.95%
same,O-E,[17],22.88
same,"E, Expected % disease control",[18],48.83%
same,"O, Observed % disease control",[18],96.96%
same,O-E,[18],48.13
same,"E, Expected % disease control",[19],96.25%
same,"O, Observed % disease control",[19],100%
same,O-E,[19],3.75
same,"E, Expected % disease control",[20],97.08%
same,"O, Observed % disease control",[20],100%
same,O-E,[20],2.92
same,"E, Expected % disease control",[21],94.58%
same,"O, Observed % disease control",[21],97.95%
same,O-E,[21],3.37
same,"E, Expected % disease control",[22],89.77%
same,"O, Observed % disease control",[22],97.97%
same,O-E,[22],8.2
same,performance in combination with A76 (indicative of synergy),,better than expected

# Reference: patent US20040097596A1 (priority 2000, published 2004)
